Results taken from patent US8034756B2, “Formulations with unexpected cleaning performance incorporating a biodegradable chelant” (Dow Global Technologies LLC, priority 2006, dated 2011).
Entries after “also recorded” stand apart in the source; their conditions may differ.

Assays:
[1] = Standard laboratory biodegradation tests (OECD 301A, 301B, 301D, 301E, 306); details: 301E and OECD 306 seawater test
Source text: The above Log K values show the dramatically greater chelation strength of EDTA as compared to HEIDA. One would expect that the chelating agent with the greatest metal ion affinity (in this case, EDTA) would have the better performance for removing the soil containing Ca, Mg, and Fe3+.

[2] = CSMA DCC-16 scrubber test for removal of lime soap (panel rating); details: panel scale 0 to 5; 1 gram cleaning solution, 30 seconds, 6 cycles at 454 grams of force; formulation with 3.2% chelant salt
Source text: Black ceramic tiles (meeting ANSI standard A371.1, 4¼″ square) are soiled as directed by the procedure described in […] Specialties Manufacturers Association DCC-16, (CSMA Detergents Division Test Methods Compendium—Third Edition—May 1995—Pages I-51 to I-55) “Guidelines for Evaluating the Efficacy of Bathroom Cleaners, Part 2: Scrubber Test for Measuring the Removal of Lime Soap.”. The principal metals present in the soil mixture used in the tile cleaning test are calcium, followed by magnesium, present as their highly insoluble stearate salts (soap scum). Cleaning solution formulations are prepared as described in the previous example. To the surface of the soiled tiles on the scrubbing apparatus, 1 gram of cleaning solution is sprayed and allowed to stand for 30 seconds. The tile is then scrubbed with a pre-moistened sponge with 454 grams of force for 6 cycles (total of 12 passes over the soiled tile). The tile is then rinsed with water and allowed to air dry. Panelists judge the cleanliness of the tiles on a scale from 0 to 5 (with “0” for completely dirty and “5” for completely cleaned), and the results of the observations are averaged.

[3] = ASTM D5343 cleaning performance of ceramic tile cleaners (number of strokes); details: ASTM D5343 tile cleaning test
Procedure: Cleaning formulations are prepared to contain the following (by weight): 2.62% Sodium dodecylbenzene sulfonic acid, 2.62% cocoamidopropyl betaine (Lonzaine C), 2.62% ethylene glycol butyl ether (Dowanol EB™), 3.2% of the chelant salt (except for the blank, which contains all components except the chelant), and the balance water. Thus the formulation of Example 31 contains 3.2% by weight of the chelant salt (in this case, K2HEIDA), and so on for Examples 32 and 33 which evaluate (K)1.8(Na)0.2(HEIDA), and (K)1.6(Na)0.4(HEIDA), respectively, as well as Comparative Examples 27-30 which evaluate the formulations containing Na4EDTA, Na2HEIDA, K4EDTA, and (K)1.0(Na)1.0(HEIDA), respectively.
The cleaning ability of these compositions is determined according to ASTM D5343, “Standard Guide for Evaluating Cleaning Performance of Ceramic Tile Cleaners:” using soiled white bathroom tiles as directed by the procedure. […] 10 ml of the cleaning formulation is placed on the face of a pre-moistened sponge, then the number of strokes (under 454 grams of force) are determined to achieve soil removal of 90% or greater. The number of strokes required by each formulation to obtain 90% or greater soil removal is recorded for each cleaning formulation.

[4] = overall constant, log of [metal complex]/([free metal][free ligand]); cited from earlier work
[5] = overall constant, log of [metal complex]/([free metal][free ligand]); cited from earlier work; remark: listed apart in the source
[6] = overall constant, log of [metal complex]/([free metal][free ligand]); cited from earlier work; remark: listed apart in the source
[7] = Calcium oxalate titration; assay type: physicochemical; details: pH about 11.6; titrated with 0.5 M CaCl2 to first faint permanent turbidity
Source text: The primary metal present in the standard ASTM soil is calcium. One method of estimating the calcium control performance of a chelating agent is to perform a calcium titration that utilizes the tendency to produce a calcium precipitate when a given amount of chelant can no longer control any additional added calcium, thus producing a visible precipitate. Using such a titration test, one normally deems the best chelants for calcium control as those that accept the most calcium before the precipitate appears per a given unit of chelating agent. A standard titration test often employed to determine a chelant's calcium control effectiveness is the calcium oxalate titration. In this titration, standard calcium chloride titrant is added to a measured amount of chelating agent and the onset of calcium oxalate precipitate (detected as the first permanent turbidity that forms) defines the amount of calcium that can be controlled. Strong chelants accept a mole-for-mole amount of calcium, while weaker chelants will accept less than a mole-for-mole amount of calcium in this titration. […]

SMILES	biodegradability [1]	Cleaning rating (higher is better) [2]	cleaning performance compared in words [3]	Log K Fe3+ [4]	Log K Ca [5]	Log K Mg [6]	% Molar Chelation of calcium (max. = 100) [7] [%]
O=C([O-])CN(CCO)CC(=O)[O-].[K+].[K+] [Example K2HEIDA]	readily biodegradable	4.67 (+/−0.26)	equal performance; also recorded: performs equally as well as K4EDTA	–	–	–	–
O=C(O)CN(CCN(CC(=O)O)CC(=O)O)CC(=O)O [EDTA, ethylene diamine tetraacetate]	–	–	–	25.1	10.7	8.7	100
O=C([O-])CN(CCN(CC(=O)[O-])CC(=O)[O-])CC(=O)[O-].[K+].[K+].[K+].[K+] [Example K4EDTA]	–	3.60 (+/−0.13)	–	–	–	–	–
